The structures appear in SMILES notation. A value given as a limit tells only on which side of the number the result lay.

The record followed here is patent US20240239792A1, “MODULATORS OF BCL-2 OR BCL-2/BCL-XL AND USES THEREOF” (APPICINE THERAPEUTICS (HK) LIMITED, priority 2021, published 2024).

One test deals with DOHH2 cells. The test can be described thus: CellTiter-Glo cell proliferation assay, DOHH2 cells. In kind it is cell-based. Conditions: Homo sapiens, DOHH-2, 72 hours. The method, boiled down:
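GI50 derived from CellTiter-Glo luminescent viability signal. Cells grown in DMEM with 10% FBS received a compound dilution series for 72 h (37 °C, 5% CO2).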
In general terms: Cellular ATP, detected with luciferase, serves as a proxy for viable cell number.

A further test has as its target T1, BCL-2 (Homo sapiens, UniProt P10415).
T1 construct: purchased Cisbio 63ADK000CB01PEG
In words: HTRF BCL-2/BAK assay (Cisbio). Format: binding. Conditions: recombinant human Tag1-BCL-2 2 nM, Tag2-BAK 10 nM. Here is the method: (§1) Then the pre-mixed anti-Tag1-Eu^3+ and anti-tag2-XL665 were added to the plate and further incubated at room temperature for another 2 hours. The signals ([…]) were read on Envision 2104 instrument. The IC50 for each compound was derived from fitting the signal of 665/615 nM to the increasing compound concentration.
(§2) Using the above assays, the following compounds were tested.
For orientation: Time-resolved FRET reads energy transfer from a long-lived donor to a nearby acceptor.

The target of another test is T2, BCL-XL (Homo sapiens, UniProt Q07817).
T2 construct: purchased Cisbio 63ADK000CB04PEG
T2 sequence (Q07817 whole entry): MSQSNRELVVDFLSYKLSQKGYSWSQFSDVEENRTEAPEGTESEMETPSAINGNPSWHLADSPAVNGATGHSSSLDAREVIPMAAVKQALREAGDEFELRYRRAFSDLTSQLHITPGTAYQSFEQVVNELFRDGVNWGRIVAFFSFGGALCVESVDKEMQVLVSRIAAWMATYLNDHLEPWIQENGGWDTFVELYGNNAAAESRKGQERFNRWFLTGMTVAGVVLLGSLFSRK
The test can be described thus: HTRF BCL-XL/BAK assay (Cisbio). In kind it is binding. The note with it: recombinant human Tag1-BCL-XL 2 nM, Tag2-BAK 5 nM. As for the experimental part: as §1, §2

T1 sequence (P10415 whole entry): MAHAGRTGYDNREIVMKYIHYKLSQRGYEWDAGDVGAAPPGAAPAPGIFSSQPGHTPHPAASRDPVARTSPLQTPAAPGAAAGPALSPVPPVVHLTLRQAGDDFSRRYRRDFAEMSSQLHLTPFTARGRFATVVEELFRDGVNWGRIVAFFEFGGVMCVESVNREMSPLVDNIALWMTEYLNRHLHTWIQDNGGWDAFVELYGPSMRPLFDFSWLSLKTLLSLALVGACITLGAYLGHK

What is called GI50 is the concentration at which growth is held to half of that of the control. A word on the IC50: it is the point on the concentration scale where inhibition reaches its midpoint. With `O=C(NS(=O)(=O)c1ccc(NCC2CCC3(CC2)COC3)c([N+](=O)[O-])c1)c1ccc(N2CCN([C@@H]3CCCCc4c3cccc4[N+](=O)[O-])CC2)cc1Oc1cnc2[nH]ccc2c1` [Compound 74, (R)-2-((1H-pyrrolo[2,3-b]pyridin-5-yl)oxy)-N-((4-(((2-oxaspiro[3.5]nonan-7-yl)methyl)amino)-3-nitrophenyl)sulfonyl)-4-(4-(1-nitro-6,7,8,9-tetrahydro-5H-benzo[7]annulen-5-yl)piperazin-1-yl)benzamide], the GI50 with DOHH2 cells was under 50 nM. Further, the IC50 on BCL-2 is under 20 nM; on BCL-XL, 20 to 200 nM.

In the test with DOHH2 cells, `O=C(NS(=O)(=O)c1ccc(NCC2CC3(COC3)C2)c([N+](=O)[O-])c1)c1ccc(N2CCN([C@@H]3CCCCc4c3cccc4[N+](=O)[O-])CC2)cc1Oc1cnc2[nH]ccc2c1` [Compound 75, (R)-2-((1H-pyrrolo[2,3-b]pyridin-5-yl)oxy)-N-((4-(((2-oxaspiro[3.3]heptan-6-yl)methyl)amino)-3-nitrophenyl)sulfonyl)-4-(4-(1-nitro-6,7,8,9-tetrahydro-5H-benzo[7]annulen-5-yl)piperazin-1-yl)benzamide] had a GI50 of under 50 nM. For the same compound, the IC50 on BCL-2 is under 20 nM; at BCL-XL, 20 to 200 nM.

In the test with DOHH2 cells, `Cc1ccc(S(=O)(=O)N2CCCC(N3CCN(c4ccc(C(=O)NS(=O)(=O)c5ccc(NCC6CCOCC6)c([N+](=O)[O-])c5)c(Oc5cnc6[nH]ccc6c5)c4)CC3)c3ccccc32)cc1` (stereo not drawn) [Compound 76, 2-((1H-pyrrolo[2,3-b]pyridin-5-yl)oxy)-N-((3-nitro-4-(((tetrahydro-2H-pyran-4-yl)methyl)amino)phenyl)sulfonyl)-4-(4-(1-tosyl-2,3,4,5-tetrahydro-1H-benzo[b]azepin-5-yl)piperazin-1-yl)benzamide] gave a GI50 of 500 to 5000 nM. The values for the IC50 at BCL-2 and on BCL-XL were under 20 nM and 200 to 2000 nM, respectively.

As to `O=C(NS(=O)(=O)c1ccc(NCC2CC3(COC3)C2)c([N+](=O)[O-])c1)c1ccc(N2CCN([C@@H]3CCCCc4c(Br)cccc43)CC2)cc1Oc1cnc2[nH]ccc2c1` [Compound 77, (R)-2-((1H-pyrrolo[2,3-b]pyridin-5-yl)oxy)-N-((4-(((2-oxaspiro[3.3]heptan-6-yl)methyl)amino)-3-nitrophenyl)sulfonyl)-4-(4-(1-bromo-6,7,8,9-tetrahydro-5H-benzo[7]annulen-5-yl)piperazin-1-yl)benzamide], the GI50 in the test on DOHH2 cells is under 50 nM. The IC50 at BCL-2 was under 20 nM; on BCL-XL, 20 to 200 nM.

In the test on DOHH2 cells, `O=C(NS(=O)(=O)c1ccc(NCC2CCOCC2)c([N+](=O)[O-])c1)c1ccc(N2CCN([C@@H]3CCCCc4c(Br)cc(F)cc43)CC2)cc1Oc1cnc2[nH]ccc2c1` [Compound 78, (R)-2-((1H-pyrrolo[2,3-b]pyridin-5-yl)oxy)-4-(4-(1-bromo-3-fluoro-6,7,8,9-tetrahydro-5H-benzo[7]annulen-5-yl)piperazin-1-yl)-N-((3-nitro-4-(((tetrahydro-2H-pyran-4-yl)methyl)amino)phenyl)sulfonyl)benzamide] came in with a GI50 of 50 to 500 nM. The results for the IC50 at BCL-2 and at BCL-XL were under 20 nM and 200 to 2000 nM, respectively.

Consider `O=C(NS(=O)(=O)c1ccc(NCC2CCC3(CC2)COC3)c([N+](=O)[O-])c1)c1ccc(N2CCN([C@@H]3CCCCc4c(Br)cc(F)cc43)CC2)cc1Oc1cnc2[nH]ccc2c1` [Compound 79, (R)-2-((1H-pyrrolo[2,3-b]pyridin-5-yl)oxy)-N-((4-(((2-oxaspiro[3.5]nonan-7-yl)methyl)amino)-3-nitrophenyl)sulfonyl)-4-(4-(1-bromo-3-fluoro-6,7,8,9-tetrahydro-5H-benzo[7]annulen-5-yl)piperazin-1-yl)benzamide], for which the GI50 with DOHH2 cells lay in the range of 50 to 500 nM. In addition, the IC50 is under 20 nM on BCL-2 and 200 to 2000 nM on BCL-XL.

For the compound `O=C(NS(=O)(=O)c1ccc(NCCN2CCC3(CC2)COC3)c([N+](=O)[O-])c1)c1ccc(N2CCN([C@@H]3CCCCc4c(Br)cc(F)cc43)CC2)cc1Oc1cnc2[nH]ccc2c1` [Compound 80, (R)-2-((1H-pyrrolo[2,3-b]pyridin-5-yl)oxy)-N-((4-((2-(2-oxa-7-azaspiro[3.5]nonan-7-yl)ethyl)amino)-3-nitrophenyl)sulfonyl)-4-(4-(1-bromo-3-fluoro-6,7,8,9-tetrahydro-5H-benzo[7]annulen-5-yl)piperazin-1-yl)benzamide], the GI50 in the test with DOHH2 cells is 500 to 5000 nM. The IC50 at BCL-2 is under 20 nM; on BCL-XL, 20 to 200 nM.

In the case of `O=C(NS(=O)(=O)c1ccc(NCC2CCN(C3COC3)CC2)c([N+](=O)[O-])c1)c1ccc(N2CCN([C@@H]3CCCCc4c(Cl)cccc43)CC2)cc1Oc1cnc2[nH]ccc2c1` [Compound 83, (R)-2-((1H-pyrrolo[2,3-b]pyridin-5-yl)oxy)-4-(4-(1-chloro-6,7,8,9-tetrahydro-5H-benzo[7]annulen-5-yl)piperazin-1-yl)-N-((3-nitro-4-(((1-(oxetan-3-yl)piperidin-4-yl)methyl)amino)phenyl)sulfonyl)benzamide], the GI50 in the test with DOHH2 cells is under 50 nM. Besides, the IC50 at BCL-2 and at BCL-XL was under 20 nM throughout.

In the case of `O=C(NS(=O)(=O)c1ccc(NCCN2CCN(C3COC3)CC2)c([N+](=O)[O-])c1)c1ccc(N2CCN([C@@H]3CCCCc4c(Cl)cccc43)CC2)cc1Oc1cnc2[nH]ccc2c1` [Compound 84, (R)-2-((1H-pyrrolo[2,3-b]pyridin-5-yl)oxy)-4-(4-(1-chloro-6,7,8,9-tetrahydro-5H-benzo[7]annulen-5-yl)piperazin-1-yl)-N-((3-nitro-4-((2-(4-(oxetan-3-yl)piperazin-1-yl)ethyl)amino)phenyl)sulfonyl)benzamide], the GI50 in the test on DOHH2 cells was under 50 nM. The figures for the IC50 on BCL-2 and on BCL-XL were under 20 nM and 20 to 200 nM, respectively.

Regarding `O=C(NS(=O)(=O)c1ccc(NCC2(O)CCN(C3COC3)CC2)c([N+](=O)[O-])c1)c1ccc(N2CCN([C@@H]3CCCCc4c(Cl)cccc43)CC2)cc1Oc1cnc2[nH]ccc2c1` [Compound 85, (R)-2-((1H-pyrrolo[2,3-b]pyridin-5-yl)oxy)-4-(4-(1-chloro-6,7,8,9-tetrahydro-5H-benzo[7]annulen-5-yl)piperazin-1-yl)-N-((4-(((4-hydroxy-1-(oxetan-3-yl)piperidin-4-yl)methyl)amino)-3-nitrophenyl)sulfonyl)benzamide], in the test on DOHH2 cells, the GI50 is under 50 nM. Further, the IC50 on BCL-2 and on BCL-XL was under 20 nM each time.

`CN1CCC(CNc2ccc(S(=O)(=O)NC(=O)c3ccc(N4CCN([C@@H]5CCCCc6c(Cl)cc(F)cc65)CC4)cc3Oc3cnc4[nH]ccc4c3)cc2[N+](=O)[O-])CC1` [Compound 86, (R)-2-((1H-pyrrolo[2,3-b]pyridin-5-yl)oxy)-4-(4-(1-chloro-3-fluoro-6,7,8,9-tetrahydro-5H-benzo[7]annulen-5-yl)piperazin-1-yl)-N-((4-(((1-methylpiperidin-4-yl)methyl)amino)-3-nitrophenyl)sulfonyl)benzamide] gave a GI50 in the test on DOHH2 cells of under 50 nM. In addition, the IC50 at BCL-2 and at BCL-XL was under 20 nM each time.

The compound `O=C(NS(=O)(=O)c1ccc(NCC2CCOCC2)c([N+](=O)[O-])c1)c1ccc(N2CCN([C@@H]3CCCCc4c(Cl)cc(F)cc43)CC2)cc1Oc1cnc2[nH]ccc2c1` [Compound 87, (R)-2-((1H-pyrrolo[2,3-b]pyridin-5-yl)oxy)-4-(4-(1-chloro-3-fluoro-6,7,8,9-tetrahydro-5H-benzo[7]annulen-5-yl)piperazin-1-yl)-N-((3-nitro-4-(((tetrahydro-2H-pyran-4-yl)methyl)amino)phenyl)sulfonyl)benzamide] gave a GI50 in the test on DOHH2 cells of under 50 nM. The figures for the IC50 on BCL-2 and at BCL-XL were under 20 nM and 20 to 200 nM, respectively.

Take `O=C(NS(=O)(=O)c1ccc(NCC2(O)CCN(C3COC3)CC2)c([N+](=O)[O-])c1)c1ccc(N2CCN([C@@H]3CCCCc4c(Cl)cc(F)cc43)CC2)cc1Oc1cnc2[nH]ccc2c1` [Compound 88, (R)-2-((1H-pyrrolo[2,3-b]pyridin-5-yl)oxy)-4-(4-(1-chloro-3-fluoro-6,7,8,9-tetrahydro-5H-benzo[7]annulen-5-yl)piperazin-1-yl)-N-((4-(((4-hydroxy-1-(oxetan-3-yl)piperidin-4-yl)methyl)amino)-3-nitrophenyl)sulfonyl)benzamide]: the GI50 in the test on DOHH2 cells was under 50 nM. Also, the IC50 on BCL-2 and on BCL-XL was under 20 nM each time.

Turning to `O=C(NS(=O)(=O)c1ccc(NCC2CC3(CCOCC3)C2)c([N+](=O)[O-])c1)c1ccc(N2CCN([C@@H]3CCCCc4c(Cl)cccc43)CC2)cc1Oc1cnc2[nH]ccc2c1` [Compound 99, (R)-2-((1H-pyrrolo[2,3-b]pyridin-5-yl)oxy)-N-((4-(((7-oxaspiro[3.5]nonan-2-yl)methyl)amino)-3-nitrophenyl)sulfonyl)-4-(4-(1-chloro-6,7,8,9-tetrahydro-5H-benzo[7]annulen-5-yl)piperazin-1-yl)benzamide], the GI50 in the test with DOHH2 cells was under 50 nM. Moreover, the IC50 on BCL-2 was under 20 nM; at BCL-XL, 20 to 200 nM.

The compound `CC1(C)COCCC1CNc1ccc(S(=O)(=O)NC(=O)c2ccc(N3CCN([C@@H]4CCCCc5c(Cl)cccc54)CC3)cc2Oc2cnc3[nH]ccc3c2)cc1[N+](=O)[O-]` (stereo partly drawn) [Compound 101, 2-((1H-pyrrolo[2,3-b]pyridin-5-yl)oxy)-4-(4-((R)-1-chloro-6,7,8,9-tetrahydro-5H-benzo[7]annulen-5-yl)piperazin-1-yl)-N-((4-(((3,3-dimethyltetrahydro-2H-pyran-4-yl)methyl)amino)-3-nitrophenyl)sulfonyl)benzamide] had a GI50 with DOHH2 cells of under 50 nM. In addition, the IC50 was under 20 nM at BCL-2 and 20 to 200 nM on BCL-XL.
